Reference: patent US7855205B2, “Pyrimidinyl substituted fused-pyrrolyl compounds useful in treating kinase disorders” (Janssen Pharmaceutica NV, priority 2004, dated 2010)

What was measured:
Aurora-A = target: T1, Aurora-A (Mus musculus, UniProt P97477); test: Aurora-A Screening Assay; type: biochemical, murine; conditions: 33P-γ-ATP incorporation, 10 μM ATP
T1 construct: made in house; host or cells: sf9 insect cells
T1 sequence (P97477 1-395): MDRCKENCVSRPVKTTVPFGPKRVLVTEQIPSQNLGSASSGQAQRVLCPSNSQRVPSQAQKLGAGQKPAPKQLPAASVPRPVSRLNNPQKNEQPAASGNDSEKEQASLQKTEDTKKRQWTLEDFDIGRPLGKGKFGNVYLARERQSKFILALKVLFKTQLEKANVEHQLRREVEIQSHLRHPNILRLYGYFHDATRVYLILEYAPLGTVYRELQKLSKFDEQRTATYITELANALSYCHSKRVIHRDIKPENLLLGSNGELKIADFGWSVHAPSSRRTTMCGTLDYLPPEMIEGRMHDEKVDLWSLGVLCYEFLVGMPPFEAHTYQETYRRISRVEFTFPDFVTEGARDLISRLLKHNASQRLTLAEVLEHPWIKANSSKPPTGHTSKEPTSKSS
Protocol: (§1) A kinase reaction mixture was prepared containing 50 mM Tris-HCl pH=8, 10 mM MgCl2, 0.1 mM […], 1 mM DTT, 10 μM ATP, 0.025 μM biotinylated histone-HI peptide substrate and […] per well ^33P-γ-ATP (2000-3000 Ci/mmol). 70 μL of the kinase reaction mixture was dispensed into the well of a streptavidin coated FlashPlate™ (Cat. # SMP103, NEN, Boston, Mass.). Then 1 μL of test compound stock in 100% DMSO was added to the wells resulting in a final concentration of 1% DMSO in the reaction with a 100 μL final reaction volume.
(§2) The CDK1:Cyclin-B protein was then diluted in 50 mM Tris-HCl pH=8.0, 0.1% BSA at a concentration of 1 ng per μL and 30 μL (30 ng enzyme per test well) was added to each well to initiate the reaction. The reaction was incubated for one hour at 30° C. At the end of the 1 h incubation, the reaction was terminated by aspirating the mixture from the plate and washing the wells twice with PBS containing 100 mM EDTA. The histone-H1 biotinylated peptide substrate became immobilized on the Flashplate™ and the incorporation of ^33P-γ-ATP was measured by reading the plate on a scintillation counter. Inhibition of the enzymatic activity of CDK1 was measured by observing a reduced amount of ^33P-γ-ATP incorporated into the immobilized peptide.
The Aurora-A kinase assay was carried out using the CDK kinase assay procedure except that the enzyme was replaced with the full length protein encoding the murine Aurora-A (Accession# GB BC014711) expressed and purified from sf9 insect cells.
(§3) • VEGF-R2, HER2 and (Biotin)[…]-Amide • RET kinases • CDK1 (Biotin)[…]-Amide • Aurora-A kinase Biotin-[…]-Amide

[1] = tested on: HeLa cervical adenocarcinoma; test: Inhibition of cell proliferation (14C-thymidine incorporation), HeLa; type: cell-based; conditions: Homo sapiens;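 note: HeLa cells in 96-well scintillating plates, compound for 24 h then 24 h more with 14C-thymidine, counting label built into new DNA against DMSO-only control wells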
A375 malignant melanoma = test: Inhibition of cell proliferation (14C-thymidine incorporation), A375; type: cell-based, human; conditions: Homo sapiens, A-375
Protocol: (§4) The ability of a test compound to inhibit the proliferation of cell growth was determined by measuring incorporation of ^14C-labelled thymidine into newly synthesized DNA within the cells. This method was used on cell lines derived from carcinomas originating from several tissues such as HeLa cervical adenocarcinoma (American Type Culture Collection (ATCC), Virginia, Cat. #CCL-2), A375 malignant melanoma (ATCC CRL-1619), HCT-116 colon carcinoma (CCL-247). In this way the effect of a compound on cell growth of cells with many different phenotypes can be determined. Cells were trypsinized and counted and 3000-8000 cells were added to each well of a 96-well CytoStar tissue culture treated scintillating microplate (Amersham #RPNQ0160) in complete medium in a volume of 100 μL. Cells were incubated for 24 hours in complete medium at 37° C. in an atmosphere containing 5% CO2.
(§5) Next, 1 μL of test compound in 100% DMSO was added to the wells of the plate. DMSO only was added to control wells. Cells were incubated for 24 more hours in complete medium at 37° C. in an atmosphere containing 5% CO2. Methyl ^14C-thymidine 56 mCi/mmol (NEN #NEC568 or Amersham #CFA532) was diluted in complete medium and 0.2 uCi/well was added to each well of the CytoStar plate in a volume of 20 μl. The plate was incubated for 24 hours at 37° C. plus 5% CO2 in drug plus ^14C-thymidine. The contents of the plate discarded into a ^14C radioactive waste container by inverting the plate and the plate was washed twice with 200 μL PBS.
(§6) 200 μL of PBS is added to each well. The top of the plate was sealed with a transparent plate sealer and a white plate backing sealer (Packard #6005199) was applied to the bottom of the plate. The degree of methyl ^14C-thymidine incorporation was quantified on a Packard Top Count.

CDK1:Cyclin-B = target: T2, CDK1:Cyclin-B (Homo sapiens, UniProt P06493); test: CDK1 Screening Assay; type: biochemical; conditions: 33P-γ-ATP incorporation, 10 μM ATP
T2 construct: purchased New England Biolabs, Beverly, Mass; 6020; host or cells: insect cells
T2 sequence (P06493 whole entry): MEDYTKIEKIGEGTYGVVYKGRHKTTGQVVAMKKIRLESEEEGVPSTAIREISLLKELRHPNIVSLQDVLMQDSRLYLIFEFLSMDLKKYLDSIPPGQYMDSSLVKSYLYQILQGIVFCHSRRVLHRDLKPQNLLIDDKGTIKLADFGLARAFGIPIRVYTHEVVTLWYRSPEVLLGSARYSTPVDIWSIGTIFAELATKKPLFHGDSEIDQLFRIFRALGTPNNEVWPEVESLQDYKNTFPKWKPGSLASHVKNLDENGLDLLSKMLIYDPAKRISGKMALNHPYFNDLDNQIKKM
T2 sequence (P14635 whole entry partner): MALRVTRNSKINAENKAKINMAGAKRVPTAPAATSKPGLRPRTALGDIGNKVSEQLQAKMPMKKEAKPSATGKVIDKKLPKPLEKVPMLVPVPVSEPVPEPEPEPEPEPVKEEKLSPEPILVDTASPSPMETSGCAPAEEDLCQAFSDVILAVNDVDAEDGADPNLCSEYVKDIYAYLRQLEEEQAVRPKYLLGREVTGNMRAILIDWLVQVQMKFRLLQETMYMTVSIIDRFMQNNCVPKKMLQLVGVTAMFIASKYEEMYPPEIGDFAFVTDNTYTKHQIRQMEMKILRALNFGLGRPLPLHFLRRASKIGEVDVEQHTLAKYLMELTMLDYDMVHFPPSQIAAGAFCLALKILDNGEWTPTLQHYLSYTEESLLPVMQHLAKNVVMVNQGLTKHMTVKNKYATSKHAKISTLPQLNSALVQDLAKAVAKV
Protocol: as §1, §2
The CDK1 used was isolated from insect cells expressing both the human CDK1 catalytic subunit and its positive regulatory subunit cyclin B (New England Biolabs, Beverly, Mass., Cat. #6020).
as §3

HCT-116 colon carcinoma = test: Inhibition of cell proliferation (14C-thymidine incorporation), HCT-116; type: cell-based; conditions: Homo sapiens, HCT-116, HCT116
Protocol: as §4, §5, §6

VEGF-R2 = target: T3, VEGF-R2 (Rattus norvegicus, UniProt O08775); test: VEGF-R2 Screening Assay; type: biochemical; conditions: 33P-γ-ATP incorporation, 10 μM ATP
T3 construct: polyhistidine (N)
T3 sequence (O08775 786-1343): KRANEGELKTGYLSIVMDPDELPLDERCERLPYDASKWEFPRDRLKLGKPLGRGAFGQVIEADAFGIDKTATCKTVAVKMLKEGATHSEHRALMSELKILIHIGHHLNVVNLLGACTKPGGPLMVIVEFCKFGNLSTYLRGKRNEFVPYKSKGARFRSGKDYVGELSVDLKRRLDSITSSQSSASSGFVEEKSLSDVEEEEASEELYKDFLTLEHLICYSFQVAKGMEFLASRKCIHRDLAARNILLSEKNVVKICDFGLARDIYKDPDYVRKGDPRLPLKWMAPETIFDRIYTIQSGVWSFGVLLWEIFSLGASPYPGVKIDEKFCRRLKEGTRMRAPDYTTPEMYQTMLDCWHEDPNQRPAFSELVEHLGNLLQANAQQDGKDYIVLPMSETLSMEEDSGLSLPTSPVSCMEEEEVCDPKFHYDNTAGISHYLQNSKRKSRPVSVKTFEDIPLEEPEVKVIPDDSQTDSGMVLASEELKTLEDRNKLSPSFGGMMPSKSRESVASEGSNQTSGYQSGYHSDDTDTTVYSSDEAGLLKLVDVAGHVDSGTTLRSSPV
Protocol: as §2, with “Then 1 μL of test compound stock in 100% DMSO was added to the wells resulting in a final concentration of 1% DMSO in the reaction with a 100 μL final reaction volume. The CDK1:Cyclin-B” for “The CDK1:Cyclin-B”, “immobilized peptide. The VEGF-R kinase assay was carried out using the CDK kinase assay procedure except that the enzyme was replaced with the VEGF-R2 fusion protein containing a polyhistidine tag at the N-terminus followed by amino acids 786-1343 of the rat VEGF-R2 kinase domain (GenBank Accession #U93306).” for “immobilized peptide.”

IC50 (Aurora-A) [µM] | IC50 [1] [µM] | IC50 (A375 malignant melanoma) [nM] | IC50 (CDK1:Cyclin-B) [µM] | IC50 (HCT-116 colon carcinoma) [µM] | IC50 (VEGF-R2) [µM] | SMILES
0.262 | 0.00292 | 2.42 | 0.0066 | 0.00297 | 2.78 | NC1CCC(Nc2nccc(-c3c[nH]c4ncccc34)n2)CC1 (mixture of isomers) [Cpd 43, (4-Aminocyclohexyl)-[4-(1H-pyrrolo[2,3-b]pyridin-3-yl)-pyrimidin-2-yl]-amine]
0.437 | 0.291 | 251 | 0.062 | 0.379 | 0.55 | c1cnc2[nH]cc(-c3ccnc(N[C@H]4CC5CCC4C5)n3)c2c1 (stereo partly drawn) [Cpd 59, (2S)-Bicyclo[2.2.1]hept-2-yl-[4-(1H-pyrrolo[2,3-b]pyridin-3-yl)-pyrimidin-2-yl]-amine]
0.408 | 0.000993 | 0.0467 | 0.001 | 0.000542 | 1.14 | Cc1ccc(Nc2nccc(-c3c[nH]c4ncccc34)n2)c(C)c1 [Cpd 33, (2,4-Dimethylphenyl)-[4-(1H-pyrrolo[2,3-b]pyridin-3-yl)-pyrimidin-2-yl]-amine]
4.19 | 34.7 | 16400 | 2.11 | 40 | 10 | CC(=O)NC1CCN(c2nccc(-c3c[nH]c4ncccc34)n2)CC1 [Cpd 63, N-{1-[4-(1H-pyrrolo[2,3-b]pyridin-3-yl)-pyrimidin-2-yl]-piperidin-4-yl}acetamide]
0.917 | 0.00112 | 0.743 | 0.002 | 0.000353 | 7.88 | N[C@H]1CC[C@H](Nc2nccc(-c3c[nH]c4ncccc34)n2)CC1 [Cpd 42, trans-N-[4-(1H-Pyrrolo[2,3-b]pyridin-3-yl)-pyrimidin-2-yl]-cyclohexane-1,4-diamine]
0.566 | 0.514 | 277 | 0.109 | 0.222 | 1.54 | c1cnc2[nH]cc(-c3ccnc(N[C@@H]4CC5CCC4C5)n3)c2c1 (stereo partly drawn) [Cpd 58, (2R)-Bicyclo[2.2.1]hept-2-yl-[4-(1H-pyrrolo[2,3-b]pyridin-3-yl)-pyrimidin-2-yl]-amine]
6.06 | 0.144 | 165 | 0.6 | 0.077 | 10 | OCCn1cc(-c2ccnc(N[C@H]3CC[C@H](O)CC3)n2)c2cccnc21 [Cpd 72, trans-4-{4-[1-(2-Hydroxyethyl)-1H-pyrrolo[2,3-b]pyridin-3-yl]-pyrimidin-2-ylamino}-cyclohexanol]
0.312 | 0.0243 | 14 | 0.012 | 0.0208 | 3.81 | CC1CCC(Nc2nccc(-c3c[nH]c4ncccc34)n2)CC1 (mixture of isomers) [Cpd 17, (4-Methyl-cyclohexyl)-[4-(1H-pyrrolo[2,3-b]pyridin-3-yl)-pyrimidin-2-yl]-amine]

SMILES | IC50 (Aurora-A) [µM] | IC50 [1] [µM] | IC50 (A375 malignant melanoma) [nM] | IC50 (CDK1:Cyclin-B) [µM] | IC50 (HCT-116 colon carcinoma) [µM] | IC50 (VEGF-R2) [µM]
CCc1ccccc1Nc1nccc(-c2c[nH]c3ncccc23)n1 [Cpd 32, (2-Ethylphenyl)-[4-(1H-pyrrolo[2,3-b]pyridin-3-yl)-pyrimidin-2-yl]-amine] | 0.396 | 0.292 | 217 | 0.068 | 0.254 | 1.47
Cc1cc(CCN(C)C)ccc1Nc1nccc(-c2c[nH]c3ncccc23)n1 [Cpd 46] | 0.466 | 0.000963 | 0.634 | 0.0016 | 0.000545 | 0.341
O[C@H]1CC[C@H](Nc2nccc(-c3c[nH]c4ncccc34)n2)CC1 [Cpd 18, trans-4-[4-(1H-Pyrrolo[2,3-b]pyridin-3-yl)-pyrimidin-2-ylamino]-cyclohexanol] | 0.335 | 0.00161 | 1.77 | 0.0076 | 0.00225 | 1.79
